Some test systems named below: 786-0 renal; SF-295 CNS; SK-OV-3 ovarian; BT-549 breast; HOP-92 NSCLC; HCT-116 colon; CAKI-1 renal; SN12C renal; TK-10 renal; HCC-2998 colon.
Holding throughout (experiment): DTP human tumour cell line panel, 48 h

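Grown in 96-well plates, cells were treated for 48 hours with each compound at five concentrations. Insufficient inhibition: endpoint recorded as highest concentration tested. The concentration for 50% growth inhibition is given as GI50. At the TGI there is no net growth.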

On to `C=Cn1c([N+](=O)[O-])cnc1/C=C/c1ccc(C(=O)OCCN2CCOCC2)cc1`, for which the TGI in the assay on 786-0 renal, in the assay with SF-295 CNS, in the assay on SK-OV-3 ovarian, with BT-549 breast, in the assay on HOP-92 NSCLC and in the assay on HCT-116 colon was greater than 100 µM each time. Also, the TGI with CAKI-1 renal, in the assay on SN12C renal and with TK-10 renal was greater than 100 µM each time.
Take `O=C1c2cccnc2C(=O)c2c1c(C(=O)OCCCN1CCCCC1)c1ccccn21`: the 50% growth inhibitory concentration (GI50) with 786-0 renal was less than 0.01 µM; in the assay on SF-295 CNS, 0.01 µM; in the assay with SK-OV-3 ovarian it was less than 0.01 µM; in the assay on BT-549 breast it was 0.108 µM; in the assay with HOP-92 NSCLC it was 0.0512 µM; with HCT-116 colon, less than 0.0106 µM. Besides, the GI50 with CAKI-1 renal is less than 0.01 µM; in the assay with TK-10 renal, 0.0272 µM. Further, the TGI was less than 0.01 µM in the assay on 786-0 renal; 0.0383 µM in the assay on SF-295 CNS; less than 0.0199 µM in the assay on SK-OV-3 ovarian; 2.78 µM in the assay with BT-549 breast; 0.913 µM with HOP-92 NSCLC; 0.275 µM in the assay with HCT-116 colon. The TGI with CAKI-1 renal amounted to 0.105 µM; in the assay on TK-10 renal, 4.18 µM.
Take `NC(CSSCC(N)C(=O)O)C(=O)O` (configuration not stated): the GI50 in the assay with 786-0 renal, in the assay on SF-295 CNS, with SK-OV-3 ovarian, in the assay on BT-549 breast, in the assay on HOP-92 NSCLC and in the assay with HCT-116 colon was greater than 100 µM throughout. Moreover, the GI50 with CAKI-1 renal, in the assay on SN12C renal and in the assay on TK-10 renal was greater than 100 µM in each case. In addition, the TGI in the assay on 786-0 renal, in the assay on SF-295 CNS, in the assay with SK-OV-3 ovarian, in the assay on BT-549 breast, with HOP-92 NSCLC and in the assay on HCT-116 colon was greater than 100 µM in each case. The TGI in the assay with CAKI-1 renal, with SN12C renal and in the assay with TK-10 renal was greater than 100 µM each time.
With `Cc1ccc(-n2nnnc2-c2cnc(N3CCOCC3)nc2-c2cccc(C(F)(F)F)c2)cc1`, the GI50 in the assay with 786-0 renal is 1.89 µM; with SF-295 CNS it was 1.1 µM; with SK-OV-3 ovarian, 1.48 µM; in the assay with BT-549 breast, 8.3 µM; in the assay with HCT-116 colon, 1.35 µM; in the assay with CAKI-1 renal, 1.45 µM. In addition, the values for the GI50 in the assay with SN12C renal, in the assay with TK-10 renal and in the assay with HCC-2998 colon were 2.53 µM, 1.54 µM and 0.992 µM, respectively. Moreover, the TGI was greater than 50 µM in the assay on 786-0 renal; 3.65 µM in the assay on SF-295 CNS; greater than 13.3 µM in the assay with SK-OV-3 ovarian; 31.3 µM in the assay on BT-549 breast; 5.08 µM in the assay with HCT-116 colon; 13.2 µM in the assay on CAKI-1 renal. Moreover, the results for the TGI in the assay with SN12C renal, in the assay with TK-10 renal and in the assay with HCC-2998 colon were greater than 13.9 µM, 4.56 µM and 2.17 µM, respectively.
For the molecule `Cc1nc2cc(Nc3nc(Nc4ccc(F)cc4)nc(N4CCOCC4)n3)ccc2n1Cc1ccccc1`, the GI50 is 1.69 µM in the assay with 786-0 renal; 3.01 µM with SF-295 CNS; 10.5 µM in the assay on SK-OV-3 ovarian; 8.19 µM in the assay on BT-549 breast; 1.98 µM with HCT-116 colon; 3.89 µM in the assay with CAKI-1 renal. In addition, the GI50 with SN12C renal is 4.63 µM. Besides, the TGI with 786-0 renal came to 3.33 µM; in the assay with SF-295 CNS, 9.03 µM; in the assay on SK-OV-3 ovarian it was 25.1 µM; in the assay with BT-549 breast, 25.7 µM; in the assay on HCT-116 colon, 4 µM; in the assay on CAKI-1 renal it was 18.5 µM. Also, in the assay with SN12C renal, the total growth inhibition concentration (TGI) worked out at 27.4 µM.
As for `COc1ccc(C(=O)c2sc3nc(-c4cccs4)ccc3c2N)cc1OC`, the GI50 in the assay with 786-0 renal is 62.4 µM; in the assay with SF-295 CNS it was 3.07 µM; in the assay on SK-OV-3 ovarian, 51.9 µM; in the assay on BT-549 breast it was 3.82 µM; in the assay on HCT-116 colon, 5.06 µM; in the assay with CAKI-1 renal it was 5.29 µM. Further, the GI50 is 11 µM in the assay with SN12C renal and 26.2 µM with HCC-2998 colon. Also, the total growth inhibition concentration (TGI) was greater than 100 µM in the assay with 786-0 renal; 18.2 µM in the assay with SF-295 CNS; greater than 100 µM in the assay with SK-OV-3 ovarian; greater than 100 µM in the assay on BT-549 breast; greater than 100 µM in the assay with HCT-116 colon; greater than 100 µM in the assay on CAKI-1 renal. The concentration for total growth inhibition (TGI) in the assay on SN12C renal and in the assay on HCC-2998 colon was greater than 100 µM in each case.
For `O=[N+]([O-])c1cc([N+](=O)[O-])c(Cl)cc1Cl`, the GI50 with 786-0 renal is 1.71 µM; with SF-295 CNS, 1.75 µM; with SK-OV-3 ovarian it was 1.78 µM; in the assay with BT-549 breast it was 1.69 µM; in the assay with HOP-92 NSCLC, 1.59 µM; in the assay on HCT-116 colon, 0.661 µM. Also, the GI50 in the assay with CAKI-1 renal is 0.188 µM; with SN12C renal, 1.76 µM; in the assay on TK-10 renal, 1.65 µM. Moreover, the TGI in the assay on 786-0 renal worked out at 3.21 µM; in the assay on SF-295 CNS it was 3.63 µM; with SK-OV-3 ovarian, 3.21 µM; in the assay on BT-549 breast it was 3.1 µM; in the assay with HOP-92 NSCLC it was 4.11 µM; in the assay on HCT-116 colon, 2.17 µM. Besides, the TGI with CAKI-1 renal turned out to be 0.352 µM; in the assay with SN12C renal, 3.55 µM; in the assay with TK-10 renal, 3.16 µM.
Take `CCCCOC1OC(COC(=O)C(C)C)C(OC(=O)C(C)C)C(O)C1OC1OC(C)C(OC(=O)CCC)C(OC(=O)C(C)C)C1O` (configuration not stated): the GI50 was 14 µM in the assay with 786-0 renal; 14.4 µM in the assay with SF-295 CNS; 19.8 µM in the assay with SK-OV-3 ovarian; 22.1 µM in the assay with BT-549 breast; 13.2 µM in the assay on HOP-92 NSCLC; 6.41 µM with HCT-116 colon. For the same molecule, the GI50 was 17.4 µM in the assay on CAKI-1 renal and 13.2 µM with TK-10 renal. Besides, the total growth inhibition concentration (TGI) was 26.9 µM in the assay on 786-0 renal; 27.5 µM in the assay on SF-295 CNS; 34 µM in the assay on SK-OV-3 ovarian; 37.7 µM in the assay on BT-549 breast; 25.9 µM with HOP-92 NSCLC; 18.4 µM in the assay with HCT-116 colon. Further, the figures for the TGI with CAKI-1 renal and in the assay with TK-10 renal were 31.1 µM and 25.9 µM, respectively.
With `COc1c(N2CCN(CN3C(=O)C(=O)c4cc(Cl)ccc43)C(C)C2)c(F)cc2c(=O)c(C(=O)O)cn(C3CC3)c12` (configuration not stated), the GI50 was greater than 100 µM in the assay with 786-0 renal; 91.7 µM in the assay on SF-295 CNS; 37.3 µM in the assay on BT-549 breast; 29.8 µM with HCT-116 colon; 24.7 µM with CAKI-1 renal; 48.2 µM with SN12C renal. Further, the GI50 in the assay with TK-10 renal is 27.1 µM. In addition, the TGI in the assay with 786-0 renal, in the assay with SF-295 CNS, with BT-549 breast, with HCT-116 colon, in the assay with CAKI-1 renal and with SN12C renal was greater than 100 µM throughout. This molecule also showed a TGI with TK-10 renal greater than 100 µM.
Consider `N#CC(C#N)=C/C=C(\Sc1ccc(F)cc1Cl)c1ccc(Cl)cc1`, for which the GI50 in the assay with 786-0 renal was 0.523 µM; in the assay on SF-295 CNS, 0.639 µM; in the assay with SK-OV-3 ovarian it was 2.8 µM; with BT-549 breast, 0.598 µM; with HCT-116 colon, 0.366 µM; in the assay on CAKI-1 renal, 0.427 µM. The GI50 is 0.365 µM in the assay on SN12C renal, 0.5 µM in the assay with TK-10 renal and 2.3 µM with HCC-2998 colon. Further, the TGI is 2.39 µM in the assay with 786-0 renal; 6.79 µM with SF-295 CNS; 23.4 µM in the assay with SK-OV-3 ovarian; 3.7 µM in the assay on BT-549 breast; 1.89 µM with HCT-116 colon; 3.61 µM in the assay on CAKI-1 renal. The TGI with SN12C renal turned out to be 1.34 µM; in the assay with TK-10 renal, 2.08 µM; in the assay with HCC-2998 colon, 4.54 µM.
`O=Cc1ccc(-c2ccc(-c3nc4ccccc4s3)cc2)s1`: the GI50 in the assay on 786-0 renal is 51.7 µM; with SF-295 CNS it was 40.7 µM; in the assay on SK-OV-3 ovarian, greater than 100 µM; in the assay on BT-549 breast it was 63.8 µM; with HCT-116 colon it was 35.3 µM; in the assay with CAKI-1 renal it was 48.2 µM. For the same molecule, the GI50 is 70.2 µM in the assay on TK-10 renal and greater than 100 µM in the assay with HCC-2998 colon. The TGI in the assay with 786-0 renal, in the assay with SF-295 CNS, with SK-OV-3 ovarian, in the assay on BT-549 breast, in the assay with HCT-116 colon and in the assay with CAKI-1 renal was greater than 100 µM in each case. The TGI with TK-10 renal and in the assay with HCC-2998 colon was greater than 100 µM each time.
Take `Cc1ccc(S(=O)(=O)N/N=C/C(C)C)cc1`: the TGI with 786-0 renal, in the assay with SF-295 CNS, in the assay with SK-OV-3 ovarian, in the assay with HOP-92 NSCLC, with HCT-116 colon and in the assay on CAKI-1 renal was greater than 100 µM in each case. Also, the TGI with SN12C renal, in the assay on TK-10 renal and in the assay on HCC-2998 colon was greater than 100 µM in each case.
Take `COc1cc(Cl)cc(-c2nn(-c3cccc(NC(=O)Nc4ccc(Cl)c(Cl)c4)c3)cc2-c2ccncc2)c1`: the GI50 is 2.31 µM with 786-0 renal; 1.77 µM in the assay with SF-295 CNS; 3.6 µM in the assay on SK-OV-3 ovarian; 2.62 µM in the assay with BT-549 breast; 2.02 µM in the assay on HCT-116 colon; 2.38 µM in the assay with CAKI-1 renal. Besides, the GI50 in the assay with SN12C renal was 3.1 µM; in the assay with HCC-2998 colon, 3.16 µM. The total growth inhibition concentration (TGI) in the assay with 786-0 renal is 7.84 µM; in the assay on SF-295 CNS it was 7.21 µM; with SK-OV-3 ovarian, 87 µM; in the assay on BT-549 breast it was 8.28 µM; in the assay with HCT-116 colon it was greater than 100 µM; in the assay on CAKI-1 renal, 16.7 µM. Besides, the TGI in the assay with SN12C renal was greater than 100 µM; in the assay on HCC-2998 colon, 36.8 µM.
For `Cc1ccc(C2NC(=O)c3ccccc3N2)c(C)c1` (configuration not stated), the total growth inhibition concentration (TGI) with 786-0 renal was 97.5 µM; in the assay on SF-295 CNS it was greater than 35 µM; with SK-OV-3 ovarian, greater than 100 µM; in the assay with HOP-92 NSCLC, greater than 95.7 µM; with HCT-116 colon, greater than 100 µM; in the assay with CAKI-1 renal it was 18.6 µM. Moreover, the total growth inhibition concentration (TGI) was greater than 86.5 µM in the assay with SN12C renal, greater than 100 µM with TK-10 renal and greater than 61.1 µM in the assay with HCC-2998 colon.

Values taken from PubChem BioAssay (NCI).
